From US10351591B2, “Polypeptides, peptides, and proteins functionalized by alkylation of thioether groups via ring-opening reactions” (The Regents of the University of California, priority 2015, dated 2019)

Assays:
[1] = potent nucleophile 2-mercaptopyridine; 37° C., 24 h
[2] = Poly(S-alkyl-L-methionine) stability studies in aqueous buffers; type: physicochemical; details: aqueous buffers ranging in pH from 5 to 9; 37° C., 24 h; S-alkyl-Met/Met ratio by 1H NMR
Method: The mixture was incubated on a 37° C. H2O bath for 24 h. […] The retentate was lyophilized.

## Poly(S-(3-azido-2-hydroxypropyl)-L-methionine sulfonium chloride) [compound 4]
[1]
  stability against dealkylation by nucleophile: quite stable
[2]
  stability in aqueous buffers: good stability
